Measurements published in DBAASP.
Values after ≈ are worked out from the molar mass of the structure shown.

Assays:
Assay in all cases: ≥ marks a high value that may be exact or a test limit, other limits are often not marked, values filed in µg/mL are converted to µM
[1] = system: Pluralibacter gergoviae MTCC 3826
[2] = system: Haemophilus influenzae MTCC 621
[3] = system: Shigella boydii MTCC 11947
[4] = system: Alcaligenes faecalis MTCC 1937
[5] = system: Corynebacterium glutamicum MTCC 2679
[6] = system: Salmonella enterica subsp. enterica serovar Typhimurium ATCC 14028
[7] = system: Proteus vulgaris MTCC 1771
[8] = system: Proteus mirabilis MTCC 3158
[9] = system: Alkalihalobacillus alcalophilus MTCC 860
[10] = system: Escherichia coli K12 MG1655
[11] = system: Shigella flexneri MTCC 1457
[12] = system: Enterococcus faecalis MTCC 439
[13] = system: Klebsiella oxytoca MTCC 2275
[14] = system: Stenotrophomonas maltophilia MTCC 1890
[15] = system: Bordetella bronchiseptica MTCC 6837
[16] = system: Citrobacter freundii MTCC 1658
[17] = system: Salmonella enterica MTCC 9844
[18] = system: Vibrio cholerae MTCC 3904
[19] = system: Pseudomonas aeruginosa MTCC 3542
[20] = system: Acinetobacter baumannii MTCC 9829
[21] = system: Staphylococcus haemolyticus MTCC 3383
[22] = system: Staphylococcus aureus MTCC 3160
[23] = system: Klebsiella aerogenes MTCC 111
[24] = system: Klebsiella pneumoniae MTCC 7407
[25] = system: Citrobacter koseri MTCC 1657
Candida albicans = system: Candida albicans
Staphylococcus aureus = system: Staphylococcus aureus
[26] = system: Staphylococcus aureus ATCC 29213
[27] = system: Candida albicans ATCC 90029
Pseudomonas aeruginosa = system: Pseudomonas aeruginosa
[28] = system: Escherichia coli ATCC 25922
Escherichia coli = system: Escherichia coli
[29] = system: Enterococcus faecalis ATCC 29212
[30] = system: Salmonella enterica subsp. enterica serovar Typhimurium ATCC 14028s
Escherichia coli UB1005 = system: Escherichia coli UB1005
Listeria monocytogenes = system: Listeria monocytogenes
[31] = system: Pseudomonas aeruginosa K799
[32] = system: Staphylococcus epidermidis
[33] = system: Staphylococcus aureus ATCC 25923
[34] = system: Pseudomonas aeruginosa PAO1
[35] = system: Bacillus cereus ATCC 14579
[36] = system: Enterococcus faecalis 1F-1
[37] = system: Proteus mirabilis ATCC 35659
[38] = system: Bacillus licheniformis ATCC 14580
[39] = system: Enterococcus faecium 5F-10
[40] = system: Bacillus subtilis ATCC 6051
[41] = system: Salmonella enterica ATCC H9812
[42] = system: Bacillus amyloliquefaciens ATCC 23842

| Compound | MIC [26] | MIC [28] | MIC [1] | MIC [2] | MIC [3] | MIC [4] | MIC [5] | MIC [6] | MIC [7] | MIC [8] | MIC [9] | MIC [10] | MIC [11] | MIC [12] | MIC [13] | MIC [14] | MIC [15] | MIC [16] | MIC [17] | MIC [18] | also measured |
| --- | --- | --- | --- | --- | --- | --- | --- | --- | --- | --- | --- | --- | --- | --- | --- | --- | --- | --- | --- | --- | --- |
| CC(C)C[C@H](NC(=O)[C@H](Cc1cnc[nH]1)NC(=O)[C@H](CC(N)=O)NC(=O)[C@H](Cc1c[nH]c2ccccc12)NC(=O)[C@H](CC(=O)O)NC(=O)[C@@H](N)CCC(=O)O)C(=O)NCC(=O)N[C@@H](C)C(=O)N[C@@H](C)C(=O)N[C@H](C(=O)N[C@@H](Cc1cnc[nH]1)C(=O)N[C@H](C(=O)N[C@@H](CC(C)C)C(=O)N[C@@H](CCCCN)C(=O)N[C@@H](Cc1cnc[nH]1)C(=O)N[C@H](C(=O)N[C@@H](Cc1ccc(O)cc1)C(=O)N[C@@H](CCCCN)C(=O)O)C(C)C)[C@@H](C)O)C(C)C [EDWNHLGAAVHTLKHVYK] | – | – | ≥ 60.4 µM | ≥ 60.4 µM | ≥ 60.4 µM | ≥ 60.4 µM | ≥ 60.4 µM | > 60.4 µM | ≥ 60.4 µM | ≥ 60.4 µM | ≥ 60.4 µM | ≥ 60.4 µM | ≥ 60.4 µM | ≥ 60.4 µM | ≥ 60.4 µM | ≥ 60.4 µM | ≥ 60.4 µM | ≥ 60.4 µM | ≥ 60.4 µM | ≥ 60.4 µM | MIC [19]: ≥ 60.4 µM; MIC [20]: ≥ 60.4 µM; MIC [21]: ≥ 60.4 µM; MIC [22]: ≥ 60.4 µM; MIC [23]: ≥ 60.4 µM; MIC [24]: ≥ 60.4 µM; MIC [25]: ≥ 60.4 µM |
| CC(C)C[C@H](NC(=O)[C@H](Cc1cnc[nH]1)NC(=O)[C@H](CCCN=C(N)N)NC(=O)[C@H](C)NC(=O)[C@H](CCCN=C(N)N)NC(=O)[C@H](Cc1cnc[nH]1)NC(=O)[C@H](C)NC(=O)[C@@H](NC(=O)[C@H](Cc1cnc[nH]1)NC(=O)[C@H](CCCCN)NC(=O)[C@H](CC(C)C)NC(=O)[C@H](CO)NC(=O)[C@H](C)NC(=O)[C@H](CO)NC(=O)[C@H](CC(C)C)NC(=O)[C@@H](N)CCCCN)C(C)C)C(=O)N[C@@H](CO)C(=O)O [KLSASLKHVAHRARHLS] | – | – | ≥ 67 µM | ≥ 67 µM | ≥ 67 µM | ≥ 67 µM | ≥ 67 µM | > 67 µM | ≥ 67 µM | ≥ 67 µM | ≥ 67 µM | ≥ 67 µM | ≥ 67 µM | ≥ 67 µM | ≥ 67 µM | ≥ 67 µM | ≥ 67 µM | ≥ 67 µM | ≥ 67 µM | ≥ 67 µM | MIC [19]: ≥ 67 µM; MIC [20]: ≥ 67 µM; MIC [21]: ≥ 67 µM; MIC [22]: ≥ 67 µM; MIC [23]: ≥ 67 µM; MIC [24]: ≥ 67 µM; MIC [25]: ≥ 67 µM |
| CC[C@H](C)[C@H](NC(=O)[C@H](CCCN=C(N)N)NC(=O)[C@H](CS)NC(=O)[C@H](CC(C)C)NC(=O)[C@H](CCCN=C(N)N)NC(=O)[C@@H](N)CCCN=C(N)N)C(=O)N[C@H](C(=O)N[C@H](C(=O)N[C@H](C(=O)N[C@@H](CCCN=C(N)N)C(=O)N[C@H](C(=O)N[C@@H](CS)C(=O)N[C@@H](CCCN=C(N)N)C(=O)N[C@@H](CCCN=C(N)N)C(=O)O)C(C)C)[C@@H](C)CC)C(C)C)C(C)C [RRLCRIVVIRVCRR] | – | – | – | – | – | – | – | – | – | – | – | – | – | – | – | – | – | – | – | – | MIC [29]: 2.22 µM (≈ 4 µg/mL); MIC [30]: 17.8 µM (≈ 32 µg/mL); MIC (Escherichia coli UB1005): 2.22 µM (≈ 4 µg/mL); MIC (Listeria monocytogenes): 0.278 µM (≈ 0.5 µg/mL); MIC [31]: 8.9 µM (≈ 16 µg/mL); MIC [32]: 2.22 µM (≈ 4 µg/mL); MIC [33]: > 35.6 µM |
| CC(C)C[C@H](NC(=O)[C@H](CC(C)C)NC(=O)[C@H](CCC(=O)O)NC(=O)[C@H](CC(=O)O)NC(=O)[C@@H](NC(=O)[C@@H](N)CCCN=C(N)N)C(C)C)C(=O)N[C@@H](CO)C(=O)O [RVDELLS] | > 154 µM | > 154 µM | – | – | – | – | – | – | – | – | – | – | – | – | – | – | – | – | – | – | MIC [34]: > 154 µM; MIC [35]: ≥ 154 µM; MIC [36]: ≥ 154 µM; MIC [37]: ≥ 154 µM; MIC [38]: ≥ 154 µM; MIC [39]: ≥ 154 µM; MIC [40]: ≥ 154 µM; MIC [41]: ≥ 154 µM; MIC [42]: ≥ 154 µM |

Now from value to molecule, other results behind:

| MIC [26] | MIC [28] | Compound | MIC [1] | MIC [2] | MIC [3] | MIC [4] | MIC [5] | MIC [6] | MIC [7] | MIC [8] | MIC [9] | MIC [10] | MIC [11] | MIC [12] | MIC [13] | MIC [14] | MIC [15] | MIC [16] | MIC [17] | MIC [18] | also measured |
| --- | --- | --- | --- | --- | --- | --- | --- | --- | --- | --- | --- | --- | --- | --- | --- | --- | --- | --- | --- | --- | --- |
| 4.36 µM (≈ 6.25 µg/mL) | 2.18 µM (≈ 3.12 µg/mL) | CC(C)C[C@H](NC(=O)[C@H](CCCN=C(N)N)NC(=O)[C@H](Cc1cnc[nH]1)NC(=O)[C@H](CCCN=C(N)N)NC(=O)[C@H](CC(C)C)NC(=O)[C@H](CC(C)C)NC(=O)[C@@H](N)CCCCN)C(=O)N[C@@H](CC(C)C)C(=O)N[C@H](C(=O)N[C@H](C(=O)N[C@@H](CC(C)C)C(=O)N[C@@H](C)C(=O)O)[C@@H](C)O)C(C)C [KLLRHRLLVTLA] | – | – | – | – | – | – | – | – | – | – | – | – | – | – | – | – | – | – | MIC (Candida albicans): > 69.8 µM; MIC (Staphylococcus aureus): 4.36 µM (≈ 6.25 µg/mL); MIC [27]: ≥ 69.8 µM; MIC (Pseudomonas aeruginosa): 8.72 µM (≈ 12.5 µg/mL); MIC (Escherichia coli): 4.36 µM (≈ 6.25 µg/mL) |
| 6.14 µM (≈ 12.5 µg/mL) | 3.07 µM (≈ 6.25 µg/mL) | CC(C)C[C@H](NC(=O)[C@H](Cc1cnc[nH]1)NC(=O)[C@H](CO)NC(=O)[C@H](C)NC(=O)[C@H](CC(C)C)NC(=O)[C@@H](NC(=O)[C@@H](NC(=O)[C@H](CC(C)C)NC(=O)[C@H](CC(C)C)NC(=O)[C@H](CO)NC(=O)[C@H](Cc1cnc[nH]1)NC(=O)[C@H](CO)NC(=O)[C@H](CC(C)C)NC(=O)[C@H](CC(C)C)NC(=O)[C@H](CCCCN)NC(=O)[C@H](Cc1ccccc1)NC(=O)[C@H](CCCN=C(N)N)NC(=O)[C@@H](N)C(C)C)C(C)C)[C@@H](C)O)C(=O)O [VRFKLLSHSLLVTLASHL] | – | – | – | – | – | – | – | – | – | – | – | – | – | – | – | – | – | – | MIC (Candida albicans): 12.3 µM (≈ 25 µg/mL); MIC (Staphylococcus aureus): 3.07 µM (≈ 6.25 µg/mL); MIC [27]: 12.3 µM (≈ 25 µg/mL); MIC (Pseudomonas aeruginosa): 3.07 µM (≈ 6.25 µg/mL); MIC (Escherichia coli): 6.14 µM (≈ 12.5 µg/mL) |
